In brackets after ≈: the same amount, converted by molar mass. Read-outs that look alike come from different tables or passages of the source.
How the values were obtained:
[1] = tested on: B. thailandensis; experiment: microbe, parasite or virus in culture; format: cell-based, Burkholderia thailandensis; conditions: for MIC90: Burkholderia thailandensis, read-out: MIC90 B. thailandensis
[2] = tested on: A. baumannii ATCC 19606; experiment: Preliminary MBC without and with sub-inhibitory polymyxin B (Example 4); format: cell-based, Acinetobacter baumannii; conditions: preliminary MBC; for MBC: Acinetobacter baumannii, ATCC19606, A. baumannii ATCC 19606, without polymyxin B, read-out: MBC without PB; for MBC +0.06 μg/ml PB: A. baumannii ATCC 19606, +0.06 μg/ml polymyxin B
[3] = tested on: A. baumannii A390; experiment: MIC without and with sub-inhibitory polymyxin B (Example 4); format: cell-based, Acinetobacter baumannii; conditions: for MIC: Acinetobacter baumannii, A390, A. baumannii A390, without polymyxin B, read-out: MIC without PB
[4] = tested on: A. baumannii A387; experiment: as above; format: cell-based, Acinetobacter baumannii; conditions: for MIC: Acinetobacter baumannii, A387, A. baumannii A387, without polymyxin B, read-out: MIC without PB; for MIC +0.06 μg/ml PB / MIC without PB/MIC + PB: A. baumannii A387; for MIC +0.06 μg/ml PB: +0.06 μg/ml polymyxin B; for MIC without PB/MIC + PB: ratio, PB 0.06 μg/ml
[5] = tested on: A. baumannii A473; experiment: MIC determination for Acinetobacter strains (Example 3); format: cell-based; conditions: LEV R, CIP R, MRP R, IMP R, AMK R, TET R
[6] = tested on: A. baumannii A387; experiment: Preliminary MBC without and with sub-inhibitory polymyxin B (Example 4); format: cell-based, Acinetobacter baumannii; conditions: for MBC: Acinetobacter baumannii, A387, A. baumannii A387, without polymyxin B, read-out: MBC without PB; for MBC +0.06 μg/ml PB: A. baumannii A387, +0.06 μg/ml polymyxin B
[7] = tested on: A. baumannii A390; experiment: MIC determination for Acinetobacter strains (Example 3); format: cell-based; conditions: LEV R, CIP R, MRP R, IPM I, AMK R, TET I
[8] = tested on: A. baumannii A489; experiment: as above; format: cell-based; conditions: LEV R, CIP R, MRP R, IMP R, AMK R, TET R
[9] = tested on: A. baumannii J2; experiment: as above; format: cell-based; conditions: LEV R, CIP R
[10] = tested on: A. baumannii J2; experiment: Preliminary MBC without and with sub-inhibitory polymyxin B (Example 4); format: cell-based, Acinetobacter baumannii; conditions: preliminary MBC; for MBC: Acinetobacter baumannii, J2, A. baumannii J2, without polymyxin B, read-out: MBC without PB; for MBC +[…] PB: A. baumannii J2, +[…] polymyxin B
[11] = tested on: A. baumannii ATCC 19606; experiment: MIC determination for Acinetobacter strains (Example 3); format: cell-based; conditions: ATCC19606, reference strain
[12] = tested on: 11 strains of A. baumannii and one strain of Acinetobacter sp.; experiment: Preliminary MBC without and with sub-inhibitory polymyxin B, whole panel (Example 4; also strains not listed separately); format: cell-based; conditions: for MBC +0.06 μg/ml PB: A. baumannii A14, +0.06 μg/ml polymyxin B; for MBC +[…] PB: A. baumannii NCTC 13301, +[…] polymyxin B; for MBC: Acinetobacter baumannii, read-out: MBC without PB
[13] = tested on: A. baumannii A387; experiment: MIC determination for Acinetobacter strains (Example 3); format: cell-based; conditions: LEV I, CIP R, IPM R, AMK R, TET R
[14] = tested on: S. aureus SMITH; experiment: MIC, panel of quinolone-resistant strains (CLSI); format: cell-based; conditions: Staphylococcus aureus; CIP R
[15] = tested on: Klebsiella ssp KPC-3; experiment: MIC, panel of quinolone-resistant strains (CLSI); format: cell-based, Klebsiella spp; conditions: KPC3, CIP R, ESBL
[16] = tested on: P. aeruginosa 143-3-03; experiment: MIC, panel of quinolone-resistant strains (CLSI); format: cell-based; conditions: Pseudomonas aeruginosa, 143303; CIP I, POL R
[17] = tested on: S. pneumoniae 1027; experiment: MIC, panel of quinolone-resistant strains (CLSI); format: cell-based; conditions: Streptococcus pneumoniae, LEV R
[18] = tested on: P. aeruginosa 27853; experiment: MIC, standard panel of Gram-positive and Gram-negative bacteria (CLSI); format: cell-based, Pseudomonas aeruginosa; conditions: Pseudomonas aeruginosa, 27853; CAMHB; read-out: MIC P. aeruginosa 27853
[19] = tested on: S. aureus 25923; experiment: as above; format: cell-based, Staphylococcus aureus; conditions: Staphylococcus aureus, 25923; CAMHB; read-out: MIC S. aureus 25923
[20] = tested on: S. aureus 25923 HS; experiment: as above; format: cell-based; conditions: Staphylococcus aureus, CAMHB, HS, read-out: MIC S. aureus 25923 HS
[21] = tested on: A. Baumanii OXA-51; experiment: MIC, panel of quinolone-resistant strains (CLSI); format: cell-based; conditions: Acinetobacter baumannii; CIP R, ESBL
[22] = tested on: E. coli 25922; experiment: MIC, standard panel of Gram-positive and Gram-negative bacteria (CLSI); format: cell-based, Escherichia coli; conditions: Escherichia coli, 25922; CAMHB; read-out: MIC E. coli 25922
[23] = A. baumannii A14, without polymyxin B, 1st experiment
[24] = A. baumannii A14, without polymyxin B, 2nd experiment
[25] = NCTC13301, A. baumannii NCTC 13301, without polymyxin B, 1st experiment

| SMILES | MIC90 [1] [µg/mL] | MBC ([2]; 2nd experiment) [µg/mL] | MBC ([2]; 1st experiment) [µg/mL] | MIC ([3]; 1st experiment) [µg/mL] | MIC ([3]; 2nd experiment, visual reading) [µg/mL] | MIC ([4]; 2nd experiment, visual reading) [µg/mL] | MIC [5] [µg/mL] | MBC ([6]; 2nd experiment) [µg/mL] | MIC [7] [µg/mL] | MIC [8] [µg/mL] | MIC [9] [µg/mL] | MBC ([10]; 2nd experiment) [µg/mL] | MBC ([10]; 1st experiment) [µg/mL] | MIC [11] [µg/mL] | MIC ([4]; 1st experiment) [µg/mL] | MBC ([6]; 1st experiment) [µg/mL] | MBC [12, 23] [µg/mL] | MBC [12, 24] [µg/mL] | MBC [12, 25] [µg/mL] | MIC [13] [µg/mL] | further results |
| --- | --- | --- | --- | --- | --- | --- | --- | --- | --- | --- | --- | --- | --- | --- | --- | --- | --- | --- | --- | --- | --- |
| Cc1c(-c2ccc(N)c(F)c2)ccn2c(=O)c(C(=O)O)cc(C3CC3)c12 [Compound 1, 8-(3-fluoro-4-amino-phenyl)-1-cyclopropyl-9-methyl-4-oxo-quinolizine-3-carboxylic acid] | < 0.048 | 0.25 (≈ 0.709 µM) | 0.25 (≈ 0.709 µM) | 16 (≈ 45.4 µM) | 16 (≈ 45.4 µM) | 4 (≈ 11.4 µM) | 4 (≈ 11.4 µM) | 4 (≈ 11.4 µM) | 16 (≈ 45.4 µM) | 4 (≈ 11.4 µM) | 8 (≈ 22.7 µM) | 16 (≈ 45.4 µM) | 8 (≈ 22.7 µM) | 0.25 (≈ 0.709 µM) | – | – | – | – | – | – | Dilutions improvement shift on B. thailandensis MIC90 (between pH 7 and pH 5) ([1]; pH 7 versus pH 5): Yes, 4× |
| C[C@@H](O)[C@H]1C(=O)N2C(C(=O)O)=C(SCCN=CN)C[C@H]12 [Imipenem, reference compound] | – | 4 (≈ 13.4 µM) | 2 (≈ 6.68 µM) | 16 (≈ 53.4 µM) | 16 (≈ 53.4 µM) | 16 (≈ 53.4 µM) | 32 (≈ 107 µM) | 16 (≈ 53.4 µM) | 16 (≈ 53.4 µM) | 128 (≈ 428 µM) | 4 (≈ 13.4 µM) | 8 (≈ 26.7 µM) | 4 (≈ 13.4 µM) | 2 (≈ 6.68 µM) | 16 (≈ 53.4 µM) | 16 (≈ 53.4 µM) | 2 (≈ 6.68 µM) | 1 (≈ 3.34 µM) | 128 (≈ 428 µM) | 16 (≈ 53.4 µM) | MBC +0.06 μg/ml PB ([2]; 2nd experiment): 1 µg/mL; MBC +0.06 μg/ml PB ([2]; 1st experiment): 2 µg/mL; MIC +0.06 μg/ml PB ([3]; A. baumannii A390, +0.06 μg/ml polymyxin B, 2nd experiment, visual reading): 4 µg/mL; MIC without PB/MIC + PB ([3]; A. baumannii A390, ratio, PB 0.06 μg/ml, 2nd experiment): 4; MIC +0.06 μg/ml PB ([4]; 1st experiment): 8 µg/mL; MIC +0.06 μg/ml PB ([4]; 2nd experiment, visual reading): 8 µg/mL; MIC without PB/MIC + PB ([4]; 1st experiment): 2; MIC without PB/MIC + PB ([4]; 2nd experiment): 2; MBC +0.06 μg/ml PB ([6]; 1st experiment): 8 µg/mL; MBC +0.06 μg/ml PB ([6]; 2nd experiment): 8 µg/mL; MBC +[…] PB ([10]; 2nd experiment): ≤0.125 µg/mL; MBC +[…] PB ([10]; 1st experiment): ≤0.125 µg/mL; MBC +0.06 μg/ml PB ([12]; 1st experiment): 1 µg/mL; MBC +0.06 μg/ml PB ([12]; 2nd experiment): 0.5 µg/mL; MBC +[…] PB ([12]; 1st experiment): 16 µg/mL (≈ 53.4 µM); MBC +[…] PB ([12]; 2nd experiment): 0.5 µg/mL (≈ 1.67 µM); MBC ([12]; NCTC13301, A. baumannii NCTC 13301, without polymyxin B, 2nd experiment): 128 µg/mL (≈ 428 µM) |
| C[C@H]1COc2c(N3CCN(C)CC3)c(F)cc3c(=O)c(C(=O)O)cn1c23 [Levofloxacin, reference compound] | – | 1 (≈ 2.77 µM) | 0.5 (≈ 1.38 µM) | – | – | – | – | – | – | – | 32 (≈ 88.6 µM) | 32 (≈ 88.6 µM) | 32 (≈ 88.6 µM) | 1 (≈ 2.77 µM) | – | – | 32 (≈ 88.6 µM) | 32 (≈ 88.6 µM) | 32 (≈ 88.6 µM) | – | MIC [14]: 8 µg/mL (≈ 22.1 µM); MIC [15]: > 128 µg/mL; MIC [16]: 8 µg/mL (≈ 22.1 µM); MIC [17]: 16 µg/mL (≈ 44.3 µM) |
| Cc1c(-c2cc(Cl)c(N)c(Cl)c2)ccn2c(=O)c(C(=O)O)cc(C3CC3)c12 [Compound 3, 8-(3,5-dichloro-4-amino-phenyl)-1-cyclopropyl-9-methyl-4-oxo-quinolizine-3-carboxylic acid] | < 0.048 | – | – | – | – | 1 (≈ 2.48 µM) | 4 (≈ 9.92 µM) | 4 (≈ 9.92 µM) | – | 4 (≈ 9.92 µM) | 8 (≈ 19.8 µM) | 32 (≈ 79.4 µM) | 8 (≈ 19.8 µM) | – | 1 (≈ 2.48 µM) | 1 (≈ 2.48 µM) | – | – | – | 1 (≈ 2.48 µM) | MIC [15]: 8 µg/mL (≈ 19.8 µM); MIC [18]: 2 µg/mL (≈ 4.96 µM); MIC [19]: < 0.008 µg/mL; MIC [16]: 4 µg/mL (≈ 9.92 µM); MIC [20]: 1 µg/mL (≈ 2.48 µM); MIC [21]: 8 µg/mL (≈ 19.8 µM); MIC [22]: < 0.03 µg/mL; MIC [17]: 2 µg/mL (≈ 4.96 µM) |
